Results published in patent publication US10160755B2 (Plexxikon Inc., priority 2015, dated 2018).

Assays:
FLT3-ITD = molecular target: T1, FLT3-ITD (Homo sapiens, UniProt P36888); experiment: FLT3-ITD biochemical kinase assay (AlphaScreen)
T1 construct: FLT3-ITD; Invitrogen #PV6190
T1 sequence (P36888 1-993): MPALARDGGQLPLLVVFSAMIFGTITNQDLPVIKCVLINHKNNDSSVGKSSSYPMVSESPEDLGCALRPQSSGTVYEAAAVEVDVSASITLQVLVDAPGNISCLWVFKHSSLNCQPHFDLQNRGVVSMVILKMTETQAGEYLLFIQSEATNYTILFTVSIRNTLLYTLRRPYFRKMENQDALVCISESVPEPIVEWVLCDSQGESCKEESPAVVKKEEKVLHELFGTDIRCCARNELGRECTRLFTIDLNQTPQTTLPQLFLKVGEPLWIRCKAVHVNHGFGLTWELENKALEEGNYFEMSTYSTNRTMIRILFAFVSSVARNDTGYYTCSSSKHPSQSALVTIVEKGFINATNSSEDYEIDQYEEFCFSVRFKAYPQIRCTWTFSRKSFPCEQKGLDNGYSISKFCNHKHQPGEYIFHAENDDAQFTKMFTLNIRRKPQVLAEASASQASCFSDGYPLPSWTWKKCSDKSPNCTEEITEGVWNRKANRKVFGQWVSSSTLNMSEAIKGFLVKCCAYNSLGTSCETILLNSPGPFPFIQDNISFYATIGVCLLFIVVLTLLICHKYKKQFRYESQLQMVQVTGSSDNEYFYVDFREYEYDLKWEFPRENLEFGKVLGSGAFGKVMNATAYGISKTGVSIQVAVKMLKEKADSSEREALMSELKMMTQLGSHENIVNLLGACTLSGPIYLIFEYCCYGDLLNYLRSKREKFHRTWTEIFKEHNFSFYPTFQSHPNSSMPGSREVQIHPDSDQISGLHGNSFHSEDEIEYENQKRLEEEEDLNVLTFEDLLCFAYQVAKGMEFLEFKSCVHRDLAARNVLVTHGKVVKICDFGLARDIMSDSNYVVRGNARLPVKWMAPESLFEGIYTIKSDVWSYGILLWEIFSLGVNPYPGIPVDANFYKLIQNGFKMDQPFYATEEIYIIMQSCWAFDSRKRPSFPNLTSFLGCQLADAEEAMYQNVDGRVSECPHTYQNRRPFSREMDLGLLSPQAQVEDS
Text: (§1) In order to determine the effect of compounds on FLT3 catalytic activity, kinase assays using recombinant enzymes and AlphaScreen® technology have been established. When the kinases are catalytically active, they phosphorylate a biotinylated peptide substrate on tyrosine residues. Using AlphaScreen® technology, the ability of the compounds to affect the catalytic activity of the kinases can be measured quantitatively. The peptide substrate is immobilized by the AlphaScreen® Streptavidin Donor beads and, upon phosphorylation by a tyrosine kinase, can bind to AlphaScreen® Anti-Phosphotyrosine (PY20) Acceptor beads. Upon excitation of these beads with laser light at 680 nm, singlet oxygen is produced. This singlet oxygen is rapidly quenched, unless the AlphaScreen® Anti-Phosphotyrosine (PY20) Acceptor beads are in close proximity, in which case a proximity signal can be measured at 580 nm. In the presence of catalytic activity, there is a very strong proximity signal. Selective kinase inhibitors affect a decrease in this proximity signal through a decrease in tyrosine phosphorylation of the peptide substrate.
(§2) Substrate • Poly (Glu4-Tyr) Peptide, biotin conjugate [Biotin-GG(EEEEY)10EE (SEQ ID NO: 4)] • UBI/Millipore #12-440 • Final concentration=30 nM
(§3) Adenosine Triphosphate (ATP) • Sigma #A-3377 • Final concentration for IC50 determination=10 μM (FLT3-D835Y) or 100 μM (FLT3 or FLT3-ITD) • Detection Reagent • AlphaScreen® Phosphotyrosine (PY20) Assay Kit • Perkin-Elmer #6760601M • Final concentration=10 μg/mL
(§4) Centrifuge 1 minute, shake to mix, and incubate as follows:
(§5) • Mix Streptavidin Donor beads at 6× final concentration in Stop/Detection buffer. • Add 5 μL Streptavidin Donor beads to the reaction plate. Centrifuge 1 minute, shake to mix, and incubate at room temperature for 20 minutes. • Mix Anti-Phosphotyrosine (PY20) Acceptor beads at 6× final concentration in Stop/Detection buffer. • Add 5 μL Anti-Phosphotyrosine (PY20) beads to the reaction plate. • Centrifuge 1 minute, shake to mix, and incubate at room temperature for 60 minutes. • Read plate on Wallac EnVision™ 2103 Multilabel Reader. In Vivo Model System Testing

FLT3-D835Y = molecular target: T2, FLT3-D835Y (Homo sapiens, UniProt P36888, D835Y); experiment: FLT3-D835Y biochemical kinase assay (AlphaScreen)
T2 construct: purchased Invitrogen PV3967
T2 sequence (P36888 27-993 D835Y): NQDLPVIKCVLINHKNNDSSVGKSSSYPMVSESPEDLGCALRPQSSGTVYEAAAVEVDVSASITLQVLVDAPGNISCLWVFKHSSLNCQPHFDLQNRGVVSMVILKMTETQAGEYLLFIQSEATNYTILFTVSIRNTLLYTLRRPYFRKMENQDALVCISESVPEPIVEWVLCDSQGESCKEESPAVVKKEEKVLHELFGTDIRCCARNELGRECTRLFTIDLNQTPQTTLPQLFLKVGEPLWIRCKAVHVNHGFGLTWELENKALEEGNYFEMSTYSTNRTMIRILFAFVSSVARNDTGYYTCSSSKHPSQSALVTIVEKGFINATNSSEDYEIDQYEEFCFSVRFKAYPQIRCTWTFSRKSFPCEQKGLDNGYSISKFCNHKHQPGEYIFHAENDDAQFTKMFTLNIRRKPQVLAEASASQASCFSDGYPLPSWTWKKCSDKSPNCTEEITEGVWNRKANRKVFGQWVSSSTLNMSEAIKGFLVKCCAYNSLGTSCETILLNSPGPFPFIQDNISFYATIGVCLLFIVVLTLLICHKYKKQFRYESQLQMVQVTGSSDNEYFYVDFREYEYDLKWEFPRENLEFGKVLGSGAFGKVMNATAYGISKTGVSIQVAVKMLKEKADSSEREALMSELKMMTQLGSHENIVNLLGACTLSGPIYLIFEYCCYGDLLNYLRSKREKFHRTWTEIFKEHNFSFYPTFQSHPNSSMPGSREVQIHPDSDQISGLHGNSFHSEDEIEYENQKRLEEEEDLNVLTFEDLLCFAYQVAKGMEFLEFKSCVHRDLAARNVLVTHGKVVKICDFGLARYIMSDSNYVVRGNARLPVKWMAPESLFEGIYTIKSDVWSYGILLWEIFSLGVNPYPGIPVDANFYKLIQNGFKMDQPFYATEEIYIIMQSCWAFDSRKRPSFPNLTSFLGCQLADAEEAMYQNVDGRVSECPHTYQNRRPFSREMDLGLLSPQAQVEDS
Text: as §1, §2, §3, §4, §5

| SMILES | IC50 (FLT3-ITD) [µM] | IC50 (FLT3-D835Y) [µM] |
| --- | --- | --- |
| Fc1ccc(-n2cnc3ccc(-c4c[nH]c5ncc(-c6cccc(OC(F)(F)F)c6)cc45)cc32)cc1Cl [P-211, 1-(3-chloro-4-fluoro-phenyl)-6-[5-[3-(trifluoromethoxy)phenyl]-1H-pyrrolo[2,3-b]pyridin-3-yl]benzimidazole] | 0.0001 to 1 | 0.0001 to 1 |
| COc1cc(-c2cnc3[nH]cc(-c4ccc5ncn(C(C)(C)C)c5c4)c3n2)ccc1C#N [P-354, 4-[7-(3-tert-butylbenzimidazol-5-yl)-5H-pyrrolo[2,3-b]pyrazin-2-yl]-2-methoxy-benzonitrile] | 0.0001 to 1 | 0.0001 to 1 |
| COc1cc(-c2cnc3[nH]cc(-c4ccc5ncsc5c4)c3n2)ccc1Cl [P-161, 6-[2-(4-chloro-3-methoxy-phenyl)-5H-pyrrolo[2,3-b]pyrazin-7-yl]-1,3-benzothiazole] | 1 to 10 | 0.0001 to 1 |
| CN(c1cccc(-c2cnc3[nH]cc(-c4ccc5ncsc5c4)c3n2)c1)S(C)(=O)=O [P-167, N-[3-[7-(1,3-benzothiazol-6-yl)-5H-pyrrolo[2,3-b]pyrazin-2-yl]phenyl]-N-methyl-methanesulfonamide] | 0.0001 to 1 | 0.0001 to 1 |
| CN(C)c1ncc(-c2cnc3[nH]cc(-c4ccc5ncn(C(C)(C)C)c5c4)c3n2)cn1 [P-378, 5-[7-(3-tert-butylbenzimidazol-5-yl)-5H-pyrrolo[2,3-b]pyrazin-2-yl]-N,N-dimethyl-pyrimidin-2-amine] | 0.0001 to 1 | 0.0001 to 1 |
| O=C(O)Cc1cccc(-c2cnc3[nH]cc(-c4ccc5ncsc5c4)c3n2)c1 [P-164, 2-[3-[7-(1,3-benzothiazol-6-yl)-5H-pyrrolo[2,3-b]pyrazin-2-yl]phenyl]acetic acid] | 0.0001 to 1 | 0.0001 to 1 |
| CC(C)(C)n1cnc2ccc(-c3c[nH]c4ncc(-c5cccc(OCC6CC6)c5)cc34)cc21 [P-373, 1-tert-butyl-6-[5-[3-(cyclopropylmethoxy)phenyl]-1H-pyrrolo[2,3-b]pyridin-3-yl]benzimidazole] | 0.0001 to 1 |  |
| Cc1ncc(-c2cnc3[nH]cc(-c4ccc5ncn(C(C)(C)C)c5c4)c3c2)cc1F [P-392, 1-tert-butyl-6-[5-(5-fluoro-6-methyl-3-pyridyl)-1H-pyrrolo[2,3-b]pyridin-3-yl]benzimidazole] | 0.0001 to 1 |  |
| Cc1ncc(-c2cnc3[nH]cc(-c4ccc5ncn(C(C)(C)C)c5c4)c3c2)cn1 [P-395, 1-tert-butyl-6-[5-(2-methylpyrimidin-5-yl)-1H-pyrrolo[2,3-b]pyridin-3-yl]benzimidazole] | 0.0001 to 1 |  |
| Cc1cc(-c2cnc3[nH]cc(-c4ccc5ncn(C(C)(C)C)c5c4)c3c2)cnc1F [P-394, 1-tert-butyl-6-[5-(6-fluoro-5-methyl-3-pyridyl)-1H-pyrrolo[2,3-b]pyridin-3-yl]benzimidazole] | 0.0001 to 1 |  |

Other lines, results leading:

| IC50 (FLT3-ITD) [µM] | IC50 (FLT3-D835Y) [µM] | SMILES |
| --- | --- | --- |
| 0.0001 to 1 | 0.0001 to 1 | Cn1cnc2ccc(-c3c[nH]c4ncc(-c5cccc(S(=O)(=O)N6CCCC6)c5)nc34)cc21 [P-156, 7-(3-methylbenzimidazol-5-yl)-2-(3-pyrrolidin-1-ylsulfonylphenyl)-5H-pyrrolo[2,3-b]pyrazine] |
| 0.0001 to 1 | 0.0001 to 1 | CCCS(=O)(=O)Nc1cccc(-c2cnc3[nH]cc(-c4ccc5ncsc5c4)c3n2)c1 [P-168, N-[3-[7-(1,3-benzothiazol-6-yl)-5H-pyrrolo[2,3-b]pyrazin-2-yl]phenyl]propane-1-sulfonamide] |
| 0.0001 to 1 |  | Cc1ncc(-c2cnc3[nH]cc(-c4ccc5ncn(C(C)(C)C)c5c4)c3c2)cc1C#N [P-391, 5-[3-(3-tert-butylbenzimidazol-5-yl)-1H-pyrrolo[2,3-b]pyridin-5-yl]-2-methyl-pyridine-3-carbonitrile] |
| 0.0001 to 1 |  | CN(C)c1ncc(-c2cnc3[nH]cc(-c4ccc5ncn(C(C)(C)C)c5c4)c3c2)cn1 [P-401, 5-[3-(3-tert-butylbenzimidazol-5-yl)-1H-pyrrolo[2,3-b]pyridin-5-yl]-N,N-dimethyl-pyrimidin-2-amine] |
| 0.0001 to 1 |  | CC(C)(C)n1cnc2ccc(-c3c[nH]c4ncc(-c5cnc(N6CCC6)nc5)cc34)cc21 [P-398, 5-[2-(azetidin-1-yl)pyrimidin-5-yl]-3-(3-tert-butylbenzimidazol-5-yl)-1H-pyrrolo[2,3-b]pyridine] |
| 0.0001 to 1 |  | CC(C)(C)n1cnc2ccc(-c3c[nH]c4ncc(-c5cncnc5)cc34)cc21 [P-399, 1-tert-butyl-6-(5-pyrimidin-5-yl-1H-pyrrolo[2,3-b]pyridin-3-yl)benzimidazole] |
| 0.0001 to 1 |  | CC(C)(C)n1cnc2ccc(-c3c[nH]c4ncc(-c5cnc(NC6CC6)nc5)cc34)cc21 [P-400, 5-[3-(3-tert-butylbenzimidazol-5-yl)-1H-pyrrolo[2,3-b]pyridin-5-yl]-N-cyclopropyl-pyrimidin-2-amine] |
| 0.0001 to 1 |  | COCCOc1cncc(-c2cnc3[nH]cc(-c4ccc5ncn(C(C)(C)C)c5c4)c3c2)c1 [P-368, 1-tert-butyl-6-[5-[5-(2-methoxyethoxy)-3-pyridyl]-1H-pyrrolo[2,3-b]pyridin-3-yl]benzimidazole] |
| 0.0001 to 1 |  | COc1cc(-c2cnc3[nH]cc(-c4ccc5ncn(C(C)(C)C)c5c4)c3c2)ccc1C#N [P-372, 4-[3-(3-tert-butylbenzimidazol-5-yl)-1H-pyrrolo[2,3-b]pyridin-5-yl]-2-methoxy-benzonitrile] |
| 0.0001 to 1 |  | CC(C)(C)n1cnc2ccc(-c3c[nH]c4ncc(-c5cncc(NS(C)(=O)=O)c5)cc34)cc21 [P-371, N-[5-[3-(3-tert-butylbenzimidazol-5-yl)-1H-pyrrolo[2,3-b]pyridin-5-yl]-3-pyridyl]methanesulfonamide] |
| 0.0001 to 1 |  | CC(C)(C)n1cnc2ccc(-c3c[nH]c4ncc(-c5cnc(N)nc5)cc34)cc21 [P-397, 5-[3-(3-tert-butylbenzimidazol-5-yl)-1H-pyrrolo[2,3-b]pyridin-5-yl]pyrimidin-2-amine] |
